Data reported in US20230121313A1 (priority 2019, published 2023).

Legend:
[1] = tested on: elderly subjects with TRD; settings: human, in vivo, other: intranasal
Experimental: (§2) The Clinician Administered Dissociative States Scale (CADSS) was measured prior to the start of each dose, at 40 minutes, and 1.5 hours postdose.

subjects with TRD [2] = settings: human, in vivo, other: intranasal
Experimental: Transient blood pressure increases peaked for the esketamine group at approximately 40 minutes post dose and returned closer to predose levels by 1.5 hours post dose.

[3] = tested on: subjects with MDD at imminent risk for suicide; assay: MADRS total score, Study […]2001 (change, sustained response, response, remission); assay type: in vivo, human; settings: for MADRS total score change, Diff. of LS Means (minus Placebo): ANCOVA LOCF; for MADRS total score, change from baseline, mean / MADRS total score, change from baseline, median / MADRS total score, mean / MADRS total score, median: LOCF, ITT N = 35
From the text: Primary efficacy variable/Primary Time point: Change from baseline (Day 1, predose) to Day 1, 4-hours postdose in MADRS total score. The MADRS consists of 10 items that cover all of the core depressive symptoms, with each item scoring from 0 (item is not present or is normal) to 6 (severe or continuous presence of the symptom). A higher score represents a more severe condition.
(§1) • a. Changes from baseline to Day 2 and Day 25 for the MADRS total score • b. Changes from baseline to Day 1 4-hours postdose, Day 2 and Day 25 for the MADRS Suicide Item • c. Changes from baseline to Day 1 4-hours postdose, Day 2, and Day 25 for the clinical global judgment of suicide risk from the Suicide Ideation and Behavior Assessment Tool (SIBAT) • d. Sustained response (Onset of Clinical Response) defined as at least 50% reduction from baseline in MADRS total score with onset on Day 1 that is maintained through the end of the double-blind phase (Day 25) • e. Changes from baseline to Day 1 4-hours postdose, Day 2, and Day 25 for the Beck Scale for Suicidal Ideation (BSS) • f. Changes from baseline to Day 1 4-hours postdose and Day 25 for the Beck Hopelessness Scale
The primary efficacy endpoint is the change in MADRS total score from baseline to Day 1: 4-hours postdose. MADRS total scores range from 0 to 60. […] As this is a phase 2a proof-of-concept study, statistical significance is based on a two-sided alpha level of 0.20. All p-values presented in this document are two-sided.
Sustained response is defined as at least 50% reduction from baseline in MADRS total score with onset on Day 1: 4 hours postdose that is maintained through the end of the double-blind phase (Day 25). Four subjects in the esketamine 84 mg group and 2 subjects in the placebo group had sustained response throughout the double-blind phase.

[4] = Pharmacokinetics of esketamine nasal spray, data assembled from 14 Phase 1 studies (Example 10); settings: human, plasma, inhaled or intranasal
Experimental: The data herein was assembled from 14 Phase 1 studies; each Phase 1 study was performed similarly to the study outlined in Example 9 in which the PK of esketamine was assessed.

[5] = tested on: subjects with MDD at imminent risk for suicide; assay: SIBAT Clinical Global Judgment of Suicide Risk, Study […]2001; assay type: in vivo, human; settings: 84 mg
From the text: as §1
The clinical global judgment of suicide risk (Module 8) summarizes clinician overall judgment of suicide risk as derived from information gathered from the full SIBAT tool. It operates like numerous other CGI-severity scales that have been used in other psychiatric studies. Change in the clinical global judgment of suicide risk is designed to directly identify clinical meaningful changes in suicidal ideation and to permit classification of suicide risk.
The analysis of the change in SIBAT score was based on an ANCOVA model on ranks of change in SIBAT with treatment, antidepressant therapy, and analysis center as factors, and baseline value (unranked) as a covariate. There was a significant difference (two-sided […]) between the two treatment groups when comparing the mean rank of change from baseline at Day 1: 4-hours postdose in favor of esketamine 84 mg See, Table 58. See, FIG. 39. […] This difference was not evident at the Day 25 DB endpoint. See, FIG. 40, which is based on LOCF data and analyzed using Cochran-Mantel-Haenszel test controlling for analysis center and antidepressant therapy.

[6] = tested on: subjects with MDD at imminent risk for suicide; assay: Beck Scale for Suicidal Ideation (BSS), Study […]2001; assay type: in vivo, human; settings: 84 mg; for BSS total score change, Diff. of LS Means (minus Placebo): ANCOVA LOCF; for BSS total score, change from baseline, mean / BSS total score, change from baseline, median / BSS total score, mean / BSS total score, median: LOCF, N 34
From the text: as §1
The BSS is a 21-item self-reported instrument to detect and measure the severity of suicidal ideation in adults and adolescents aged 17 years and older. The BSS total score represents the severity of suicide ideation, and it is calculated by summing the ratings of the first 19 items; the total score ranges from 0 to 38, with a higher score representing greater suicide ideation. Increasing scores reflect increases in suicidal risk.

subjects with TRD [7] = settings: human, in vivo, other: intranasal; remark: listed apart in the source
Experimental: as §2

For `CN[C@]1(c2ccccc2Cl)CCCCC1=O` [esketamine, (S)-2-(2-chlorophenyl)-2-(methylamino)cyclohexanone], the “CADSS dissociative and perceptual change symptoms resolved by (postdose)” value [1] was at most 1.5 h, the “Blood pressure returned closer to predose levels by (post dose)” value (subjects with TRD [2]) was at most 1.5 h and the “Transient blood pressure increases: time of peak post dose” value (subjects with TRD [2]) was “approximately 40 minutes”. The “MADRS total score change, Diff. of LS Means (minus Placebo)” value ([3]; 84 mg, Day 1 (DB): 4 H) was −5.3, the “MADRS total score, change from baseline, mean” value ([3]; 84 mg, Day 1 (DB): 4 H) was −13.4 and the “MADRS total score, change from baseline, median” value ([3]; 84 mg, Day 1 (DB): 4 H) was −14.0. For the same molecule, the “MADRS total score, mean” value ([3]; 84 mg, Day 1 (DB): 4 H) was 25.1, the “MADRS total score, median” value ([3]; 84 mg, Day 1 (DB): 4 H) was 23.0 and the “MADRS total score change, Diff. of LS Means (minus Placebo)” value ([3]; 84 mg, Day 2 (DB)) was −7.2. For the same molecule, the “MADRS total score, change from baseline, mean” value ([3]; 84 mg, Day 2 (DB)) was −19.3, the “MADRS total score, change from baseline, median” value ([3]; 84 mg, Day 2 (DB)) was −19.0 and the “MADRS total score, mean” value ([3]; 84 mg, Day 2 (DB)) was 19.2. The “MADRS total score, median” value ([3]; 84 mg, Day 2 (DB)) was 18.0, the “MADRS total score change, Diff. of LS Means (minus Placebo)” value ([3]; 84 mg, End Point (DB)) was −4.5 and the “MADRS total score, change from baseline, mean” value ([3]; 84 mg, End Point (DB)) was −26.4. For the same molecule, the “MADRS total score, change from baseline, median” value ([3]; 84 mg, End Point (DB)) was −25.0, the “MADRS total score, mean” value ([3]; 84 mg, End Point (DB)) was 12.1 and the “MADRS total score, median” value ([3]; 84 mg, End Point (DB)) was 8.0. The “Day 25 sustained response based on MADRS total score: No, subjects (%)” value ([3]; 84 mg, ITT) was 88.2%, the “Day 25 sustained response based on MADRS total score: Yes, subjects (%)” value ([3]; 84 mg, at least 50 percent reduction with onset on Day 1 maintained through Day 25, ITT) was 11.8% and the “Subjects with sustained response (≥50% MADRS reduction from Day 1 4 h through Day 25)” value ([3]; […]2001, 84 mg) was “Four”. For the same molecule, the “MADRS total score: mean change from baseline (SD)” value ([3]; […]2001, 84 mg, Day 1: 4-hours postdose) was −13.4 (9.03), the “MADRS total score: mean change from baseline (SD)” value ([3]; […]2001, 84 mg, Day 2 (DB)) was −19.3 (12.02) and the “MADRS total score: mean change from baseline (SD)” value ([3]; […]2001, 84 mg, End Point (DB)) was −26.4 (14.52). The “Subjects who discontinued due to lack of efficacy” value ([3]; […]2001, 84 mg, double-blind phase) was 1 subject, the “MADRS total score: least-square mean difference (SE) from placebo, ANCOVA” value ([3]; […]2001, esketamine 84 mg, Day 1, 4-hours postdose) was −5.3 (2.10) and the AUC(0-t) ([4]; 28 mg) was 128 to 183 ng·h/mL. It also gave a Cmax ([4]; 28 mg) of 49.7 to 70.5 ng/mL, a half-life ([4]; 28 mg, Terminal t1/2, young adult subjects, single dose nasal spray 28 mg, range across studies) of 435 to 990 min and a Tmax ([4]; 28 mg, Tmax, young adult subjects, single dose nasal spray 28 mg, range of median values) of 19.8 to 40.2 min. It also gave a Tmax ([4]; 28 mg, tmax typically observed after the first nasal spray, 28 mg) of 20 to 40 min, an AUC(0-t) ([4]; 56 mg) of 216 to 317 ng·h/mL and a Cmax ([4]; 56 mg) of 71.8 to 117 ng/mL. The half-life ([4]; 56 mg, Terminal t1/2, young adult subjects, single dose nasal spray 56 mg, range across studies) was 408 to 590 min, the Tmax ([4]; 56 mg, Tmax, young adult subjects, single dose nasal spray 56 mg, range of median values) was 30 to 46.2 min and the Tmax ([4]; 56 mg, tmax typically observed after the first nasal spray, 56 mg) was 30 to 45 min. The AUC(0-t) ([4]; 84 mg) was 310 to 489 ng·h/mL, the Cmax ([4]; 84 mg) was 95 to 164 ng/mL and the half-life ([4]; 84 mg, Terminal t1/2, young adult subjects, single dose nasal spray 84 mg, range across studies) was 396 to 720 min. The Tmax ([4]; 84 mg, Tmax, young adult subjects, single dose nasal spray 84 mg, range of median values) was 31.8 to 49.8 min, the Tmax ([4]; 84 mg, tmax typically observed after the first nasal spray, 84 mg) was 30 to 50 min and the half-life ([4]; Mean terminal t1/2, range, nasal administration) was 420 to 720 min. The half-life ([4]; Median terminal t1/2, nasal administration) was 642 min, the “SIBAT Clinical Global Judgment of Suicide Risk, change from baseline, median (range)” value ([5]; Day 1 (DB): 4 H, LOCF, N 33) was 0.0 (−6; 1) and the “SIBAT Clinical Global Judgment of Suicide Risk, median (range)” value ([5]; Day 1 (DB): 4 H, LOCF, N 33) was 5.0 (0; 6). The “SIBAT Clinical Global Judgment of Suicide Risk, change from baseline, median (range)” value ([5]; Day 2(DB) LOCF, N 35) was −1.0 (−6; 1), the “SIBAT Clinical Global Judgment of Suicide Risk, median (range)” value ([5]; Day 2(DB) LOCF, N 35) was 5.0 (0; 6) and the “Subjects with a SIBAT score of 5 or 6” value ([5]; […]2001, Day 1: 4-hour postdose) was 63.6%. For the same molecule, the “BSS total score change, Diff. of LS Means (minus Placebo)” value ([6]; Day 1 (DB): 4 H) was −2.3, the “BSS total score, change from baseline, mean” value (from here on “BSS total score, change … mean”) ([6]; Day 1 (DB): 4 H) was −10.2 and the “BSS total score, change from baseline, median” value ([6]; Day 1 (DB): 4 H) was −8.0. For the same molecule, the “BSS total score, mean” value ([6]; Day 1 (DB): 4 H) was 13.8, the “BSS total score, median” value ([6]; Day 1 (DB): 4 H) was 16.5 and the “BSS total score change, Diff. of LS Means (minus Placebo)” value ([6]; Day 2 (DB)) was −1.9. For the same molecule, the “BSS total score, change … mean” value ([6]; Day 2 (DB)) was −12.9, the “BSS total score, change from baseline, median” value ([6]; Day 2 (DB)) was −11.5 and the “BSS total score, mean” value ([6]; Day 2 (DB)) was 11.1. The “BSS total score, median” value ([6]; Day 2 (DB)) was 13.0, the “BSS total score change, Diff. of LS Means (minus Placebo)” value ([6]; End Point (DB)) was −1.7 and the “BSS total score, change … mean” value ([6]; End Point (DB)) was −19.3. The “BSS total score, change from baseline, median” value ([6]; End Point (DB)) was −21.0, the “BSS total score, mean” value ([6]; End Point (DB)) was 4.7 and the “BSS total score, median” value ([6]; End Point (DB)) was 0.0. For the same molecule, the “BSS total score change vs placebo” value ([6]; […]2001, Day 1: 4 hours postdose, Day 2 (DB), End Point (DB)) was “no statistically significant differences” and the “CADSS dissociative and perceptual change symptoms resolved by (postdose)” value (subjects with TRD [7]) was at most 1.5 h.
